Reference: patent US10111967B2, “Complexes of RNA and cationic peptides for transfection and for immunostimulation” (CureVac AG, priority 2007, dated 2018)

System: hPBMC cells
Assay: Immunostimulation of hPBMC cells by RNA/peptide complexes, cytokine production (IL-6, TNF-alpha) by ELISA
Assay type: cell-based, human
Conditions: hPBMCs, 24 h; nona-arginine or mRNA alone (not complexed)
Description: 15 μg RNA stabilized luciferase mRNA according to SEQ ID NO: 36 (Luc-RNActive) were mixed in different mass ratios with nona-arginine (Arg9) or poly-L-arginine (Sigma-Aldrich; P4663; 5000-15000 g/mol), thereby forming a complex. Following mass ratios were used as shown exemplarily for ((Arg)9). Poly-L-arginine was used for comparative examples following the same instructions.
HPBMC cells from peripheral blood of healthy donors were isolated using a Ficoll gradient and washed subsequently with 1×PBS (phosphate-buffered saline). The cells were then seeded on 96-well microtiter plates (200×1 03/well). […] The immunostimulatory effect upon the hPBMC cells was measured by detecting the cytokine production (Interleukin-6 and Tumor necrose factor alpha). […] Then, the plate was again washed with 1×PBS, containing 0.05% TWEEN®-20 surfactant, and ABTS (2,2′-azino-bis(3-ethylbenzthiazoline-6-sulfonic acid) was added as a substrate. The amount of cytokine was determined by measuring the absorption at 405 nm (OD405) using a standard curve with recombinant Cytokines (BD Pharmingen, Heidelberg, Germany) with the Sunrise ELISA-Reader from Tecan (Crailsheim, Germany). […]
The effect of R9H3 on immunostimulation was tested in hPBMCs. […] The immunostimulatory effect upon the hPBMC cells was measured by detecting the cytokine production (Interleukin-6 and Tumor necrose factor alpha). […]

Arg-Arg-Arg-Arg-Arg-Arg-Arg-Arg-Arg (RRRRRRRRR; Synthetic peptide - Exemplary oligopeptide according to formula I) [nona-arginine ((Arg)9) alone]
TNFalpha production: no significant TNFalpha production
